Key:
[1] = tested on: mouse; assay: Mouse bone formation assay, micro-CT examination of test vs control animals; type: in vivo; conditions: predetermined dose for a complete dosing schedule, vs control solution
Description: Compounds useful in the methods of the present invention can be identified via a variety of methods known to one of skill in the art. Several exemplary methods for identifying such antagonists are described herein, including cell-based and in vitro techniques (Journal of Bone and Mineral Research 2006, 21(11), 1738-1749). A general method of identifying SOST antagonists involves evaluating the effects of antagonist candidates on bone formation under controlled conditions. Preferably bone formation is determined using micro-CT techniques on live animals. Preferred animals include rodents, more preferred are primates. Femur, tibia and vertebrae bones are particularly useful subjects for such study.
Briefly, the test animal is treated with a predetermined dose of a SOST antagonist candidate. […]
Once the dosing schedule has been completed, both test and control animals are examined to determine the quantity of bone formation present. […] Where necessary, levels of bone formation can be calculated by determining the volume of bone formation present in each animal. […]
For example, the mouse test animal is treated with a predetermined dose of a SOST antagonist candidate for a complete dosing schedule. […] Once the dosing schedule has been completed, both test and control animals are examined with sacrifice using micro-CT to determine the quantity of bone formation present.

[2] = tested on: Wnt pathway; assay: Wnt pathway modulation to promote bone growth (FIG. 1); conditions: doses of 2.5 ng (low), 60 ng (medium), 125 ng (high) and 1250 ng (very high)
Protocol: For example, the mouse test animal is treated with a predetermined dose of a SOST antagonist candidate for a complete dosing schedule. A control mouse is treated with a control solution, preferably a non-irritating buffer solution or other carrier. Once the dosing schedule has been completed, both test and control animals are examined with sacrifice using micro-CT to determine the quantity of bone formation present.

[3] = tested on: C57BL/6 mice; assay: Bone growth with indoprofen: pQCT analysis on the femur after 30 days of daily treatment; type: in vivo, mouse; conditions: four month old male C57BL/6 mice, 2 mg/kg i.p. daily for 30 days, FIG. 2
Protocol: Four month old male C57BL/6 mice were treated daily with saline vehicle or the sclerostin inhibitor of indoprofen at 2 mg/kg (via i.p) for 30 days. Study endpoints included measurement of trabecular bone mineral content and bone mineral density by pQCT analysis on the femur.

With CC(C(=O)O)c1ccc(N2Cc3ccccc3C2=O)cc1 (stereo not shown) [indoprofen] the “promotion of bone growth (quantity of bone formation by micro-CT)” value [1] was “promoting bone growth”, the “modulation of the Wnt pathway to promote bone growth” value [2] was “modulating the Wnt pathway to promote bone growth” and the “increase for trabecular bone mineral density (BMD)” value ([3]; pQCT on femur) was “greater than 2%”. The “increase in bone mineral content (BMC) for the femur over baseline controls” value ([3]; pQCT) was “greater than 6%”.

Reference: patent US20100040628A1 (OsteoGeneX, Inc, priority 2008, published 2010)
